Results published in US20250101023A1, “HETEROARYL DERIVATIVE AND USES THEREOF” (IUCF-HYU (INDUSTRY-UNIVERSITY COOPERATION FOUNDATION …, priority 2022, published 2025).

Experiments:
BMPR2 = BMPR2 (Homo sapiens (Human), UniProt Q13873); test: Kinome-wide profiling; assay type: biochemical; conditions: read-out: % Residual Activity (mean)
MST1/STK4 = MST1/STK4 (Homo sapiens (Human), UniProt Q13043); test: Kinome-wide profiling; assay type: biochemical; conditions: read-out: % Residual Activity (mean)
MYO3A = MYO3A (Homo sapiens (Human), UniProt Q8NEV4); test: Kinome-wide profiling; assay type: biochemical; conditions: read-out: % Residual Activity (mean)
Sequence of MYO3A (Q8NEV4 whole entry): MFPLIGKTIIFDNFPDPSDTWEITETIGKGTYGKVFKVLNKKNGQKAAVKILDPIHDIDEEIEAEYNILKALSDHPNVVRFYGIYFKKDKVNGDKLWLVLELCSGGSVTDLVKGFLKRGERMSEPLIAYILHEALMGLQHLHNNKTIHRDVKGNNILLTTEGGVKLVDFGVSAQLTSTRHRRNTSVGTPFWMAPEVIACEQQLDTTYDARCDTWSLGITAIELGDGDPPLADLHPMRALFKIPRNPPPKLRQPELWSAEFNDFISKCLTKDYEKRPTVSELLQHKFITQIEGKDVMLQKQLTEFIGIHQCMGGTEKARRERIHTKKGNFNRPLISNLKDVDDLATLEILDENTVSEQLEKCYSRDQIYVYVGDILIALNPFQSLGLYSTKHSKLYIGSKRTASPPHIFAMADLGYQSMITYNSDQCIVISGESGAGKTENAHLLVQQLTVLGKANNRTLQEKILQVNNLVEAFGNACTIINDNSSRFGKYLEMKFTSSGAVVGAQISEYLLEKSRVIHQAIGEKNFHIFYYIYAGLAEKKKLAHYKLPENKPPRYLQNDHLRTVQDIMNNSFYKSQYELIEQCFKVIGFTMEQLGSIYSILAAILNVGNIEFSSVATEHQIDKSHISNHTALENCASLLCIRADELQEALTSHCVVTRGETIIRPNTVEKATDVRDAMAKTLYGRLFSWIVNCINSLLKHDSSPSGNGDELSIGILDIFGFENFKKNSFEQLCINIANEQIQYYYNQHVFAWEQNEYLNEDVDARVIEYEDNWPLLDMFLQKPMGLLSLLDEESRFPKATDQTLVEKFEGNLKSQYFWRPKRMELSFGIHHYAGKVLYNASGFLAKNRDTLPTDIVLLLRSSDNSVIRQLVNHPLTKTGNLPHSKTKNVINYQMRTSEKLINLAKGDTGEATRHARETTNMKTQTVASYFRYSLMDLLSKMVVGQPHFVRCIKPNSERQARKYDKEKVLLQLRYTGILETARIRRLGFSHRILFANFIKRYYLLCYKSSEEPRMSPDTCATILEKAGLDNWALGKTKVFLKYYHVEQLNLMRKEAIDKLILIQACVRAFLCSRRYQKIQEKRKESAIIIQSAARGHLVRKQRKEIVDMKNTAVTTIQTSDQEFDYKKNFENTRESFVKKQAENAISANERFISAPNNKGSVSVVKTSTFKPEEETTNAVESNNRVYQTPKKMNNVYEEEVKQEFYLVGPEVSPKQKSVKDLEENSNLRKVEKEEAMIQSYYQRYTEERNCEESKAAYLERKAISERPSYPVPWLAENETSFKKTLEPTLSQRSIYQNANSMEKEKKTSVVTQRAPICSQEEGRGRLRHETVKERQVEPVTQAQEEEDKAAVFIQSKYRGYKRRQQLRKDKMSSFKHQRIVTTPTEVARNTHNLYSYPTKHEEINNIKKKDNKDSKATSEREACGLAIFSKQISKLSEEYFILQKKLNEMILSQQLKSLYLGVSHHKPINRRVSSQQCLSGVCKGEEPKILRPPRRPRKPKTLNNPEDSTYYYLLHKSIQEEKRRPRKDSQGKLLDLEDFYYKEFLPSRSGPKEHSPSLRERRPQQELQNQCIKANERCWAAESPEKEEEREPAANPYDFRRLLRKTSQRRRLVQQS

IKKe/IKBKE = IKKe/IKBKE (Homo sapiens (Human), UniProt Q14164); test: Kinome-wide profiling; assay type: biochemical; conditions: read-out: % Residual Activity (mean)
PKCmu/PRKD1 = PKCmu/PRKD1 (Homo sapiens (Human), UniProt Q15139); test: Kinome-wide profiling; assay type: biochemical; conditions: read-out: % Residual Activity (mean)
PKCepsilon = PKCepsilon (Homo sapiens (Human), UniProt Q02156); test: Kinome-wide profiling; assay type: biochemical; conditions: read-out: % Residual Activity (mean)
CDC7/DBF4 = CDC7/DBF4 (Homo sapiens (Human), UniProt O00311); test: Kinome-wide profiling; assay type: biochemical; conditions: read-out: % Residual Activity (mean)
MUSK = MUSK (Homo sapiens (Human), UniProt O15146); test: Kinome-wide profiling; assay type: biochemical; conditions: read-out: % Residual Activity (mean)
ULK2 = ULK2 (Homo sapiens (Human), UniProt Q8IYT8); test: Kinome-wide profiling; assay type: biochemical; conditions: read-out: % Residual Activity (mean)
CDK1/cyclin E = CDK1/cyclin E (Homo sapiens (Human), UniProt P06493); test: Kinome-wide profiling; assay type: biochemical; conditions: read-out: % Residual Activity (mean)
Sequence of CDK1/cyclin E (P06493 whole entry): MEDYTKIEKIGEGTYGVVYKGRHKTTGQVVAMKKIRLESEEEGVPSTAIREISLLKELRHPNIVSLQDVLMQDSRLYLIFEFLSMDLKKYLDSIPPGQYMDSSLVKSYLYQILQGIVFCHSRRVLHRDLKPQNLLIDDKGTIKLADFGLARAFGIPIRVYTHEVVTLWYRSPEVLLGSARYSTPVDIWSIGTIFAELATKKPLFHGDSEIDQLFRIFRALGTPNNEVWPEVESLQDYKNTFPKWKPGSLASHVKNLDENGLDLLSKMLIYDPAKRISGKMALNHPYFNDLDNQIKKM
Sequence of CDK1/cyclin E (P24864 whole entry partner): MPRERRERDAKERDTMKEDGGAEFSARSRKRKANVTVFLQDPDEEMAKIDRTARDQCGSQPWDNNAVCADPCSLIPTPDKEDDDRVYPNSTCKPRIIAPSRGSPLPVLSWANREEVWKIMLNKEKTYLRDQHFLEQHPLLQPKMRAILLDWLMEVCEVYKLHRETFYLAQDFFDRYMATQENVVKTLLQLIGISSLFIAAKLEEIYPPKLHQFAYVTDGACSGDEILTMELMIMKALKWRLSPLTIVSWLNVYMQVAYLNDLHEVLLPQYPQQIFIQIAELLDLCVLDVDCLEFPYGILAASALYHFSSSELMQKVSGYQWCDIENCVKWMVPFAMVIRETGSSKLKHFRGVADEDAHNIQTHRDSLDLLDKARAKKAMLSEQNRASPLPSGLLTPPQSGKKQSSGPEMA

CK2a2 = CK2a2 (Homo sapiens (Human), UniProt P19784); test: Kinome-wide profiling; assay type: biochemical; conditions: read-out: % Residual Activity (mean)
Sequence of CK2a2 (P19784 whole entry): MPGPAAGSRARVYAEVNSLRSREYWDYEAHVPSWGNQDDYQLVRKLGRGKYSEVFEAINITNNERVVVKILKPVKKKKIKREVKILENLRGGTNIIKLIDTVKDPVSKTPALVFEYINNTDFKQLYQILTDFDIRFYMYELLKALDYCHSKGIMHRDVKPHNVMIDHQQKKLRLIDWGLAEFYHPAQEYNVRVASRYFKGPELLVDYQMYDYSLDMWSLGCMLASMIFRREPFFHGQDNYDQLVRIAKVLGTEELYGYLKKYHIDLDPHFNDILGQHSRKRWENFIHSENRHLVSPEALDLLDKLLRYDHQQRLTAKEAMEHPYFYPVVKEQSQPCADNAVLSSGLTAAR

EGFR = EGFR (Homo sapiens (Human), UniProt P00533); test: Kinome-wide profiling; assay type: biochemical; conditions: read-out: % Residual Activity (mean)
MKK6 = MKK6 (Homo sapiens (Human), UniProt P52564); test: Kinome-wide profiling; assay type: biochemical; conditions: read-out: % Residual Activity (mean)
TBK1 = TBK1 (Homo sapiens (Human), UniProt Q9UHD2); test: Kinome-wide profiling; assay type: biochemical; conditions: read-out: % Residual Activity (mean)
Sequence of TBK1 (Q9UHD2 whole entry): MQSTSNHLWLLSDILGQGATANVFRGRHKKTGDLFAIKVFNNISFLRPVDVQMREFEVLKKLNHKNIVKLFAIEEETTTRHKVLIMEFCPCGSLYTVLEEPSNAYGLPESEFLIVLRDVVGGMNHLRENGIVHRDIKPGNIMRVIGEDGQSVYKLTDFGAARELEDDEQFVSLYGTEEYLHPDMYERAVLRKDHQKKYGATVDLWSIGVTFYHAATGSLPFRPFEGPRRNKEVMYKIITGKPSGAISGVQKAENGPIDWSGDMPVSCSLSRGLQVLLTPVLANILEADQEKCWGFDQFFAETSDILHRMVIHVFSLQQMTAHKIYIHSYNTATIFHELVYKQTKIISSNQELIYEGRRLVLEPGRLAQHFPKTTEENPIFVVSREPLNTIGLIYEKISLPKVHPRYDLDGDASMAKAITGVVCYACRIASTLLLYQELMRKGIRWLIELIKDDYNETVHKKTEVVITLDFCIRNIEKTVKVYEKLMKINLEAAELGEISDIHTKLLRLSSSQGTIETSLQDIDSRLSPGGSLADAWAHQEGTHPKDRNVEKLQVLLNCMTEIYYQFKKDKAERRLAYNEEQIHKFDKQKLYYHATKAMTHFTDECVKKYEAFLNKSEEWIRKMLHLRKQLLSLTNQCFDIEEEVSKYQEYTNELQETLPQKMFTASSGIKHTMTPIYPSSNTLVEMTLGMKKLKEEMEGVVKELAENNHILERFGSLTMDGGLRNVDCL

EPHA1 = EPHA1 (Homo sapiens (Human), UniProt P21709); test: Kinome-wide profiling; assay type: biochemical; conditions: read-out: % Residual Activity (mean)
STK38L/NDR2 = STK38L/NDR2 (Homo sapiens (Human), UniProt Q9Y2H1); test: Kinome-wide profiling; assay type: biochemical; conditions: read-out: % Residual Activity (mean)
IRAK1 = IRAK1 (Homo sapiens (Human), UniProt P51617); test: Kinome-wide profiling; assay type: biochemical; conditions: read-out: % Residual Activity (mean)
Sequence of IRAK1 (P51617 whole entry): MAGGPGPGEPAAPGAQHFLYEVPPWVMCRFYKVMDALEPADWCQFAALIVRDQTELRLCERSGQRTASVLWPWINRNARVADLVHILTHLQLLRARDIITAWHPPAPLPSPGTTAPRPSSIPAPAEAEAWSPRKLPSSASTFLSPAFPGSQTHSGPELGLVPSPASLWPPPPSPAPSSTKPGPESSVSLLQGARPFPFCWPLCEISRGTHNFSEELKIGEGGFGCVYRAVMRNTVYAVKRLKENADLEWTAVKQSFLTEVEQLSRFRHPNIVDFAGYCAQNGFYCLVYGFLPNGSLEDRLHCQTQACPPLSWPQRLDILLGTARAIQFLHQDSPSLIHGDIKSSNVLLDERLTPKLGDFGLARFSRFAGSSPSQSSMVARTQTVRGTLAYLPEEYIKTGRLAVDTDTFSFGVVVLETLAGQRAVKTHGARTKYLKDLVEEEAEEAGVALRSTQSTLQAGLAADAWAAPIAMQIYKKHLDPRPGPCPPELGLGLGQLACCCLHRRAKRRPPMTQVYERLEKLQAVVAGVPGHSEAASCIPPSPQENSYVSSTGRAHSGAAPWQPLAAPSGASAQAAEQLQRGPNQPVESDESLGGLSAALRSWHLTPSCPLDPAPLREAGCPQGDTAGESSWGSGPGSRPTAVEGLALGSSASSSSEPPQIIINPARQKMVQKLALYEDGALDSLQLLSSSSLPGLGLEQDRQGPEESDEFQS

CDK7/cyclin H = CDK7/cyclin H (Homo sapiens (Human), UniProt P50613); test: Kinome-wide profiling; assay type: biochemical; conditions: read-out: % Residual Activity (mean)
MST3/STK24 = MST3/STK24 (Homo sapiens (Human), UniProt Q9Y6E0); test: Kinome-wide profiling; assay type: biochemical; conditions: read-out: % Residual Activity (mean)
NEK7 = NEK7 (Homo sapiens (Human), UniProt Q8TDX7); test: Kinome-wide profiling; assay type: biochemical; conditions: read-out: % Residual Activity (mean)
Sequence of NEK7 (Q8TDX7 whole entry): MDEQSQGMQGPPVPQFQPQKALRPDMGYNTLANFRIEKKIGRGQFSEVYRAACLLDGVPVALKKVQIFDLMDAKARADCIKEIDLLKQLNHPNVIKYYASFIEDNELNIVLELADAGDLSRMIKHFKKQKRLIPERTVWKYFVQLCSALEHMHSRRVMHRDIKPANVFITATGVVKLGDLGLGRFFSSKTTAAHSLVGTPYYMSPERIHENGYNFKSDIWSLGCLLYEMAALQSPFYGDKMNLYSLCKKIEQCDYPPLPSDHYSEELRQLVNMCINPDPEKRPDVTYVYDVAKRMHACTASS

TRKC = TRKC (Homo sapiens (Human), UniProt Q16288); test: Kinome-wide profiling; assay type: biochemical; conditions: read-out: % Residual Activity (mean)
CDK2/cyclin A1 = CDK2/cyclin A1 (Homo sapiens (Human), UniProt P24941); test: Kinome-wide profiling; assay type: biochemical; conditions: read-out: % Residual Activity (mean)
SRMS = SRMS (Homo sapiens (Human), UniProt Q9H3Y6); test: Kinome-wide profiling; assay type: biochemical; conditions: read-out: % Residual Activity (mean)
CAMK1a = CAMK1a (Homo sapiens (Human), UniProt Q14012); test: Kinome-wide profiling; assay type: biochemical; conditions: read-out: % Residual Activity (mean)
RIPK5 = RIPK5 (Homo sapiens (Human), UniProt Q6XUX3); test: Kinome-wide profiling; assay type: biochemical; conditions: read-out: % Residual Activity (mean)
TLK1 = TLK1 (Homo sapiens (Human), UniProt Q9UKI8); test: Kinome-wide profiling; assay type: biochemical; conditions: read-out: % Residual Activity (mean)
PDGFRb = PDGFRb (Homo sapiens (Human), UniProt P09619); test: Kinome-wide profiling; assay type: biochemical; conditions: read-out: % Residual Activity (mean)
IRAK2 = IRAK2 (Homo sapiens (Human), UniProt O43187); test: Kinome-wide profiling; assay type: biochemical; conditions: read-out: % Residual Activity (mean)
[1] = Body weight in SK-Br3 xenograft model; assay type: in vivo, mouse; conditions: 10 mg/kg and 20 mg/kg, i.p. twice a week
Procedure: A mouse efficacy experiment was conducted after obtaining approval from the Laboratory Animal Ethics Committee of GenNBio (Review No.: GN-IACUC-Research 22-02-07). SK-Br3 and HCC-1954 cells (1×10^6 cells each) mixed with Matrigel (BD Biosciences) were […] injected into 5-week-old female Balb/c nude mice (Orient Bio, Seongnam, Republic of Korea). After tumors reached a size of about 100 mm^3, the compound, trastuzumab (20 mg/kg), and the like were intraperitoneally injected into mice (n=8 per group)(vehicle: 8% DMSO, 4% Tween-80, 88% PBS). The tumor size was measured twice weekly for about 4 weeks and calculated as follows. Volume (mm^3)=(a×b^2)/2; “a”, maximum diameter; “b”, vertical diameter

NIM1 = NIM1 (Homo sapiens (Human), UniProt Q8IY84); test: Kinome-wide profiling; assay type: biochemical; conditions: read-out: % Residual Activity (mean)
P38b/MAPK11 = P38b/MAPK11 (Homo sapiens (Human), UniProt Q15759); test: Kinome-wide profiling; assay type: biochemical; conditions: read-out: % Residual Activity (mean)
Sequence of P38b/MAPK11 (Q15759 whole entry): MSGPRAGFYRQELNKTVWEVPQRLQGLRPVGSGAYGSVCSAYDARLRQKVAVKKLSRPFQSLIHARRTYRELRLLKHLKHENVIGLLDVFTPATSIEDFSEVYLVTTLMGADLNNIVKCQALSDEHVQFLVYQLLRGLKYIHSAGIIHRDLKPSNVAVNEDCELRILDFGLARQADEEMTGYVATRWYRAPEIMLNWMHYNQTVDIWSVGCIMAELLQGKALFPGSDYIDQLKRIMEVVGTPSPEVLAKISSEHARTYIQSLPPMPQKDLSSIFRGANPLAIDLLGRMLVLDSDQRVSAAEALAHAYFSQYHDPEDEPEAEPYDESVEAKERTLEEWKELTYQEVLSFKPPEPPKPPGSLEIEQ

TESK2 = TESK2 (Homo sapiens (Human), UniProt Q96S53); test: Kinome-wide profiling; assay type: biochemical; conditions: read-out: % Residual Activity (mean)
CDK5/P25 = CDK5/P25 (Homo sapiens (Human), UniProt Q00535); test: Kinome-wide profiling; assay type: biochemical; conditions: read-out: % Residual Activity (mean)
PKAcg = PKAcg (Homo sapiens (Human), UniProt P22612); test: Kinome-wide profiling; assay type: biochemical; conditions: read-out: % Residual Activity (mean)
NEK9 = NEK9 (Homo sapiens (Human), UniProt Q8TD19); test: Kinome-wide profiling; assay type: biochemical; conditions: read-out: % Residual Activity (mean)

CCn1cnc2c(NCc3ccc(-c4ccccn4)nc3)nc(-c3ccc(N)nc3)nc21 [Example 53, N-([2,2′-bipyridin]-5-ylmethyl)-2-(6-aminopyridin-3-yl)-9-ethyl-9H-purin-6-amine]
remaining activity at 10 µM (BMPR2): 52.4%
remaining activity at 10 µM (MST1/STK4): 62.2%
remaining activity at 10 µM (MYO3A): 71.3%
remaining activity at 10 µM (IKKe/IKBKE): 80.1%
remaining activity at 10 µM (PKCmu/PRKD1): 70.3%
remaining activity at 10 µM (PKCepsilon): 94.1%
remaining activity at 10 µM (CDC7/DBF4): 98.2%
remaining activity at 10 µM (MUSK): 10.2%
remaining activity at 10 µM (ULK2): 87.3%
remaining activity at 10 µM (CDK1/cyclin E): 7.49%
remaining activity at 10 µM (CK2a2): 91.3%
remaining activity at 10 µM (EGFR): 83.7%
remaining activity at 10 µM (MKK6): 95.4%
remaining activity at 10 µM (TBK1): 55%
remaining activity at 10 µM (EPHA1): 13.2%
remaining activity at 10 µM (STK38L/NDR2): 36.9%
remaining activity at 10 µM (IRAK1): 79%
remaining activity at 10 µM (CDK7/cyclin H): 3.81%
remaining activity at 10 µM (MST3/STK24): 47%
remaining activity at 10 µM (NEK7): 93.2%
remaining activity at 10 µM (TRKC): 54.9%
remaining activity at 10 µM (CDK2/cyclin A1): 0.16%
remaining activity at 10 µM (SRMS): 96.8%
remaining activity at 10 µM (CAMK1a): 34%
remaining activity at 10 µM (RIPK5): 67.8%
remaining activity at 10 µM (TLK1): 67.8%
remaining activity at 10 µM (PDGFRb): 34.7%
remaining activity at 10 µM (IRAK2): 97.5%
mouse body weight [1]: without any change in mouse weight
remaining activity at 10 µM (NIM1): 76%
remaining activity at 10 µM (P38b/MAPK11): 64.7%
remaining activity at 10 µM (TESK2): 83.7%
remaining activity at 10 µM (CDK5/P25): 1.6%
remaining activity at 10 µM (PKAcg): 88.4%
remaining activity at 10 µM (NEK9): 90%
